Source: patent US20250360091A1, “COMBINATION OF SGLT2 INHIBITOR AND MENTHOL AND USE THEREOF IN TREATMENT OF HEART DISEASE” (EAST CHINA UNIVERSITY OF SCIENCE AND TECHNOLOGY, priority 2023, published 2025)

Tests used:
[1] = system: intracellular calcium concentration; assay: Intracellular calcium ion concentration with calcium probe Fluo4-AM (Example 5); format: cell-based; conditions: cariporide 100 μM, empagliflozin 50 μM, menthol 200 μM, combination 50 μM + 200 μM
Text: Intracellular calcium overload is an important factor in the transition of myocardial cells from reversible to irreversible damage. Intracellular calcium overload can be seen in a variety of cardiac pathological states, such as cardiac remodeling, myocardial ischemia-reperfusion injury, viral myocarditis, dilated cardiomyopathy, arrhythmias, and congestive heart failure. […] Empagliflozin can act on the sodium-hydrogen exchanger 1 (NHE1) on the myocardial cell membrane. When myocardial ischemia occurs, myocardial cell energy metabolism is impaired, and myocardial cells switch from fatty acid metabolism to sugar-free glycolysis, producing a large amount of lactic acid, which reduces the intracellular pH. As a regulatory protein for cell pH homeostasis, NHE1 can transport H^+ out of the cell by exchanging extracellular sodium ions, resulting in an increase in the intracellular sodium ion concentration. […] When mitochondrial function is impaired, the release of ROS increases, and ROS can further stimulate L-type calcium channels, promoting Ca^2+ influx, creating a vicious cycle. Empagliflozin inhibits the activity of NHE1 and can indirectly reduce the intracellular calcium ion concentration. Menthol, as an L-type calcium channel blocker, can synergistically reduce the intracellular calcium ion concentration with empagliflozin, playing a synergistic role. In order to verify this synergistic mechanism, the intracellular calcium ion concentration was detected using the calcium ion probe Fluo4-AM.
The experiment was divided into 5 groups, including control group (no drug group), cariporide group (positive control group, 100 μM), EMPA-50 (empagliflozin, 50 μM), M-200 (menthol, 200 μM), and E50+M200 (combination of 50 μM empagliflozin and 200 μM menthol).
• (1) Take an appropriate amount of Fluo4-AM stock solution (2 mM, BeyoTime, S1060) and dilute it to a 10 μM working solution with HBSS; • (2) For the cells to be tested (covering the bottom of the dish), remove the culture medium and wash with HBSS three times; • (3) Add 25 μL of Fluo4-AM working solution to each well, and then add 25 μL of compound solution to each well; • (4) Incubate at 37° C. for 30 min for fluorescent probe loading; • (5) Wash three times with HBSS, and add 100 μL of HBSS containing 10 mM CaCl2) to each well. Detect quantitatively the fluorescence of Fluo4-AM using a multifunctional fluorescence microplate reader (excitation wavelength 488 nm, emission wavelength 520 nm) to determine the changes in intracellular calcium ions.
Since empagliflozin indirectly affects intracellular calcium concentration by inhibiting NHE1, the intracellular environment was made acidic by using ammonium chloride solution to simulate the environment during myocardial ischemia, and the effect of the administered composition on intracellular calcium ions was tested. The NHE1 inhibitor cariporide was used as a positive control. The above step (3) was changed to add 25 μL of Fluo4-AM working solution to each well, mix the test compound with 80 mM NH4Cl solution at a 1:1 ratio, and then add 25 μL mixed solution of the compound and NH4Cl to each well (the final concentration of NH4Cl was 20 mM), and the remaining steps were the same as above.

PGC-1α, PPARα, CPT1b = assay: Western blotting of fatty acid metabolism proteins (Example 6); format: cell-based, Rat; conditions: 48 h; menthol 200 μM alone or 50 μM empagliflozin + 200 μM menthol
Protocol: 2. Western blotting. H9c2 cells were seeded in a 12-well plate. After 48 hours of drug treatment, the cells were harvested and the total protein in the cells was extracted with RIPA lysis buffer. After BCA quantification, 4× loading buffer was added and boiled in a 95° C. metal bath for 10 minutes to denature the protein. 5-10 μg of the denatured protein sample was added to SDS-PAGE. After electrophoresis, separation, transfer, and blocking, PGC-1α, PPARα, CPT1b, and GAPDH primary antibody were added and incubated overnight at 4° C. The next day, the primary antibody was recovered, and the corresponding secondary antibody was added and incubated at room temperature for 1 hour. After washing three times, ECL chemiluminescent solution was added to the strips, and immunoblotting analysis was performed using a Tanon gel imager. ImageJ software was used to perform grayscale analysis of the immunoblot bands, GAPDH was used as an internal reference for correction, and the relative expression content of the protein was calculated. The experiment was divided into DMSO group (DMSO treatment group with content not exceeding 0.5%), E50 (50 μM EMPA treatment group), M200 (200 μM menthol treatment group), and E50+M200 (50 μM empagliflozin+200 μM menthol treatment group).

[2] = system: Rat myocardial cells (H9c2); assay: Glucose deprivation (GD)-induced myocardial cell injury model, cck8 cell survival, checkerboard (Example 1); format: cell-based; conditions: empagliflozin used alone; GD 36-48 h
Protocol: In this example, a glucose deprivation (GD)-induced myocardial cell injury model was used to evaluate the protective effect of the drug composition on myocardial cells. Rat myocardial cells (H9c2) were purchased from the stem cell bank of the Chinese Academy of Sciences. Myocardial cells were cultured in high-glucose DMEM (containing 10% fetal bovine serum, 1% penicillin/streptomycin) culture medium and placed in an incubator at 37° C. and 5% CO2. After the myocardial cells basically covered the cell culture dish (10 cm), the cells were digested with trypsin and planted in a 96-well plate at a cell density of 8000 cells/well, 100 μL per well. When the cells covered the bottom of the dish, the DMEM culture medium was removed and the plate was washed once with PBS. The compound was diluted to the target concentration with sugar-free and serum-free DMEM, added to the plate, and treated with GD. […] The cell survival rates of empagliflozin (EMPA) 0-100 μM, L-menthol (MEN) 0-200 μM and combined concentrations were tested, and the cell survival rates of single drugs and combined drugs were input into CompuSyn (http://www.combosyn.com) to calculate the synergistic coefficient.

[3] = system: TAC-induced heart failure model; assay: Transverse aortic constriction (TAC)-induced heart failure model (Example 4); format: in vivo, C57/6J male mice
Protocol: The transverse aortic constriction (TAC) model is the most commonly used disease model of chronic ventricular hypertrophy, which is used to simulate hypertrophic cardiomyopathy, heart failure, and hypertensive heart disease caused by hypertension or increased intraventricular pressure.
Nine-week-old C57/6J male mice were divided into five groups (sham group, TAC group, 30 mg/kg cmpagliflozin group (E30), 10 mg/kg empagliflozin+15 mg/kg menthol group (E10+M15), and 30 mg/kg empagliflozin+45 mg/kg menthol group (E30+M45)).
Experimental process of aortic arch constriction surgery: hair was removed from the surgical area from the neck to the anterior chest of the experimental mouse, and the surgical area was disinfected with iodine. The neck and chest were opened in the midline, the muscles were bluntly separated, the incision was retracted with retractors, the thymus was dissected, and the aortic arch was exposed. The innominate artery, left common carotid artery, and left subclavian artery were found along the aortic arch. The thread was passed between the right innominate artery and the left common carotid artery, and the constriction needle was paced parallel to the aortic arch and then the thread was tied a knot. After tightening the thread, the constriction needle was slowly withdrawn, that is, quantitative constriction was formed in the aortic arch. The chest cavity was closed, the skin on the neck and chest was sutured and disinfected with iodine. Two weeks after the operation, after confirming the hypertrophy of the heart through cardiac function test, drug administration started, and continued for 4 weeks. The drug administration group was gavaged once a day in the morning, and the sham group and TAC group were gavaged with the same amount of drinking water every morning.
The survival of mice was recorded during the experiment. After 4 weeks of continuous administration, the exercise tolerance of experimental mice was evaluated by rotarod test, suspension test and grip strength test. The rotarod test evaluated the maximum tolerance time of mice at a speed of 35 rpm, the suspension test evaluated the maximum tolerance time of mice forearm suspension, and the grip strength test evaluated the maximum grip strength of mice forepaws. […] After the experiment, the mice were euthanized, the hearts were weighed, the heart-body weight ratio was calculated, and then the hearts were fixed, paraffin-embedded, sliced, and Masson-stained. ImageJ was used to quantify the fibrosis area and calculate the degree of cardiac fibrosis. Graph Pad software was used for data processing and significant differences were calculated (OneWayANOVA was used between multiple groups, and Student's t test was used between two groups).

[4] = NH4Cl present (20 mM, acidic intracellular conditions)

SMILES	effect on intracellular calcium concentration (Fluo4-AM fluorescence) [1, 4]	effect on intracellular calcium concentration (Fluo4-AM fluorescence) ([1]; absence of NH4Cl)	expression of PCG-1α/PPARα (PGC-1α, PPARα, CPT1b)	expression of fatty acid transporter CPT1b (PGC-1α, PPARα, CPT1b)	effective concentration of empagliflozin (cell survival) [2] [µM]	myocardial hypertrophy (heart weight to body weight ratio) ([3]; EMPA 30 mg/kg, 4 weeks)	mouse deaths during the experiment (survival) ([3]; EMPA 30 mg/kg, gavage once daily for 4 weeks)	cardiac function (ejection fraction, fractional shortening, LV diameters) ([3]; empagliflozin 30 mg/kg, 4 weeks)	exercise tolerance (grip strength, rotarod, forearm suspension) ([3]; empagliflozin alone 30 mg/kg, 4 weeks)
CC(C)[C@@H]1CC[C@@H](C)C[C@H]1O [menthol, L-menthol]	weak effect of reducing intracellular calcium concentration	weak inhibitory effect	significantly increase the expression	upregulate the expression	–	–	–	–	–
OC[C@H]1O[C@@H](c2ccc(Cl)c(Cc3ccc(O[C@H]4CCOC4)cc3)c2)[C@H](O)[C@@H](O)[C@@H]1O [empagliflozin]	significantly reduce intracellular calcium concentration	almost no effect	–	–	50	significantly improves myocardial hypertrophy	one mouse died	significantly improves TAC-induced cardiac dysfunction	cannot improve the exercise tolerance
